Data: patent US20060264414A1, “Fluorous 2,2'-bipyridines and fluorinated biphasic sysems for ligand design” (The Board of Regents, University and Community College …, priority 2005, published 2006)
Where two headings read alike, the source gives them in different places. Marks after values point to notes of the source that are not given here.

Tests used:
[1] = Cyclic voltammetry reduction potentials; assay type: physicochemical; conditions: THF; for ΔEp: scan rate 10 V/sec, TBAPF6; for E1/2: vs. SCE, 10 μm Pt ultramicroelectrode
Source text: THF was found suitable for this study as 1-3 have sufficient solubility and the electrochemical potential window (+1.2 V to −3 V vs. SCE) extends to the potential range of interest.

[2] = Fluorous partition coefficient, CF3C6F11/toluene, GLC method; assay type: physicochemical; conditions: 1:1 v/v perfluoromethylcyclohexane and toluene
Source text: Fluorous partition coefficients (FPCs) were obtained for 1-4 for a 1:1 v/v biphasic mixture of “fluorous” solvent perfluoromethylcyclohexane, CF3C6F11 and toluene.

[3] = test system: Breast Cancer Cells (DC4 and DB-46); test: Survival studies (Clonogenic Assay); assay type: cell-based; conditions: 10 micromolar Pt agent, DC4 and DB-46 cells
Source text: Plots are appended to this document that provide viable cells vs. concentration of Pt agent.

[4] = value from ref. 13; cited from earlier work
[5] = in DMF, known values; cited from earlier work

Molecule	ΔEp [1]	E1/2 [1]	FPC = Cbpy(CF3C6F11)/Cbpy(toluene) [2]	reduction potential [5]	other results
CCCCCCCCCc1ccnc(-c2cc(CCCCCCCCC)ccn2)c1 [—(CH2)8CH3]	299 mV	−2.501 V	no compound in the CF3C6F11 layer	–	–
[4,4′-Bis(4,4,4-trifluorobutyl)-2,2′-bipyridine]PtCl2 [Complex 1]	–	–	–	–	colonies surviving / survival [3]: around 2%
FC(F)(F)C(F)(F)C(F)(F)C(F)(F)C(F)(F)C(F)(F)C(F)(F)C(F)(F)CCCCc1ccnc(-c2cc(CCCCC(F)(F)C(F)(F)C(F)(F)C(F)(F)C(F)(F)C(F)(F)C(F)(F)C(F)(F)F)ccn2)c1 [—(CH2)4Rf8, 4,4′-di-[(CH2)4(CF2)7CF3]-2,2′-bipyridine]	–	–	–	–	FPC = Cbpy(CF3C6F11)/Cbpy(toluene) [4]: 0.67^c; fi = fluorophilicity = ln[FPC] [4]: −0.40^c
Cc1ccnc(-c2cc(C)ccn2)c1 [—CH3, 4,4′-dimethyl-2,2′-bipyridine]	253 mV	−2.493 V	no compound in the CF3C6F11 layer	−2.68 V	–
FC(F)(F)C(F)(F)C(F)(F)C(F)(F)C(F)(F)C(F)(F)C(F)(F)C(F)(F)C(F)(F)C(F)(F)CCCc1ccnc(-c2cc(CCCC(F)(F)C(F)(F)C(F)(F)C(F)(F)C(F)(F)C(F)(F)C(F)(F)C(F)(F)C(F)(F)C(F)(F)F)ccn2)c1 [Ligand 4]	–	–	11	–	fi = fluorophilicity = ln[FPC] [2]: +2.4
c1ccc(-c2ccccn2)nc1 [—H, 2,2′-bipyridine]	–	–	–	−2.60 V	–
